Here are results for 24 compounds from patent US10023570B2 (Array BioPharma, Inc., priority 2015, dated 2018).

This test addresses human KDR protein in HEK-293 cells (Homo sapiens (Human), UniProt P35968). Put plainly: KDR Cell Assay (phospho-KDR in HEK-293 cells expressing inducible KDR). The class given is cell-based. As to conditions: pKDR Cell HEK 10% FBS IC50, HEK-293 cells expressing inducible KDR, VEGF stimulated. The method in brief:
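HEK-293 cells with inducible human KDR were treated with compound for 1 h in DMEM (0.25% DMSO final), then lysed. Phospho-KDR was quantified by Meso Scale immunoassay, expressed as percent of control, and IC50 taken where a 4-parameter logistic fit crossed 50 POC.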

Chain of human KDR protein in HEK-293 cells (P35968 20-1356): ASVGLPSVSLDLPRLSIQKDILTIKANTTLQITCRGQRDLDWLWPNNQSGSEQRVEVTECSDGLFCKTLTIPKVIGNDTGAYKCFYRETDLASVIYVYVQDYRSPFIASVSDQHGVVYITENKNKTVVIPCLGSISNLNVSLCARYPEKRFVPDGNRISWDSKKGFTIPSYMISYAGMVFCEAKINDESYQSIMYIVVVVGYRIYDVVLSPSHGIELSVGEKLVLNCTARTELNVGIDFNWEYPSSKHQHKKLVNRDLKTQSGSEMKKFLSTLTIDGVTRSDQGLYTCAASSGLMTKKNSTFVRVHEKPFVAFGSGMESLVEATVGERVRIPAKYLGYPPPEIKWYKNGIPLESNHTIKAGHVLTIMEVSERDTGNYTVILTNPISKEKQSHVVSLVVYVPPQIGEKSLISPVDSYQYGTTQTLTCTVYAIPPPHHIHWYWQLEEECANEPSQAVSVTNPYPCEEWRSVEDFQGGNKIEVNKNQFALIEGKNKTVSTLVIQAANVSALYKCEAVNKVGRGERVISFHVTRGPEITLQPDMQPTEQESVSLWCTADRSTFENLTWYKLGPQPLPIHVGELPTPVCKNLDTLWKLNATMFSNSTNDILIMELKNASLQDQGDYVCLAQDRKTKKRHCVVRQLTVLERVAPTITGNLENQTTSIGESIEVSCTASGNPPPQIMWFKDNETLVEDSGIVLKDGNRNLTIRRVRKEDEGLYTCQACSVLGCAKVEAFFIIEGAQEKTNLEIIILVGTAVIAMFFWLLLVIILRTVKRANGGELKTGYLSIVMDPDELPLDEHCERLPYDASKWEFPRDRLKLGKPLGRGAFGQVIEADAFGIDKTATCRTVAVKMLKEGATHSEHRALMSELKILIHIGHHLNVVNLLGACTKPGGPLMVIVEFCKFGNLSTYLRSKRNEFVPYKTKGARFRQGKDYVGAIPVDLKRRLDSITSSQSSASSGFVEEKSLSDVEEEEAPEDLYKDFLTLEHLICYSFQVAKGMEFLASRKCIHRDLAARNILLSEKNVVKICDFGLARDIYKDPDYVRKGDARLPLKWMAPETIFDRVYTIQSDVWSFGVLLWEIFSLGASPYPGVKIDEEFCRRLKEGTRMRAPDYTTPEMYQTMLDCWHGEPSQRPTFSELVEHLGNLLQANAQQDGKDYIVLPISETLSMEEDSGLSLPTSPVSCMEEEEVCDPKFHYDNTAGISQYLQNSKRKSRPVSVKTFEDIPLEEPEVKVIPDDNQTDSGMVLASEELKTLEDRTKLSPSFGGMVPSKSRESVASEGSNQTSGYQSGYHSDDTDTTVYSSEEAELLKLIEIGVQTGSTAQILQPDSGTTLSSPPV

In general, IC50 refers to the concentration at which inhibition is half-maximal. Read a high IC50 as lower potency. Compound `COc1ccc(C2(C(=O)N3CCN(c4ccc(-c5cc(-c6cnn(C)c6)cn6ncc(C#N)c56)cn4)CC3)CC2)cc1` [Example 344, 4-(6-(4-(1-(4-methoxyphenyl)cyclopropanecarbonyl)piperazin-1-yl)pyridin-3-yl)-6-(1-methyl-1H-pyrazol-4-yl)pyrazolo[1,5-a]pyridine-3-carbonitrile] came in with an IC50 (10% FBS) of 385 nM.
`Cn1cc(-c2cc(-c3ccc(N4CCN(C(=O)C5(c6ccc(F)cc6)CC5)CC4)nc3)c3c(C#N)cnn3c2)cn1` [Example 345, 4-(6-(4-(1-(4-fluorophenyl)cyclopropanecarbonyl)piperazin-1-yl)pyridin-3-yl)-6-(1-methyl-1H-pyrazol-4-yl)pyrazolo[1,5-a]pyridine-3-carbonitrile] had an IC50 (10% FBS) of 305 nM.
On to `Cn1cc(-c2cc(-c3ccc(N4CCN(C(=O)C5(C(F)(F)F)CC5)CC4)nc3)c3c(C#N)cnn3c2)cn1` [Example 346, 6-(1-methyl-1H-pyrazol-4-yl)-4-(6-(4-(1-(trifluoromethyl)cyclopropanecarbonyl)piperazin-1-yl)pyridin-3-yl)pyrazolo[1,5-a]pyridine-3-carbonitrile], for which it took 1770 nM to reach half-maximal inhibition (10% FBS) (IC50).
For the compound `Cn1cc(-c2cc(-c3ccc(N4CCN(C(=O)C5(C#N)CC5)CC4)nc3)c3c(C#N)cnn3c2)cn1` [Example 348, 4-(6-(4-(1-cyanocyclopropane-carbonyl)piperazin-1-yl)pyridin-3-yl)-6-(1-methyl-1H-pyrazol-4-yl)pyrazolo[1,5-a]pyridine-3-carbonitrile], the midpoint of inhibition (10% FBS), the IC50, lay at 1410 nM.
Consider `Cn1cc(-c2cc(-c3ccc(N4CCN(C(=O)C5(c6cccc(F)c6)CC5)CC4)nc3)c3c(C#N)cnn3c2)cn1` [Example 349, 4-(6-(4-(1-(3-fluorophenyl)cyclopropanecarbonyl)piperazin-1-yl)pyridin-3-yl)-6-(1-methyl-1H-pyrazol-4-yl)pyrazolo[1,5-a]pyridine-3-carbonitrile], for which the half-maximal inhibitory concentration (IC50) (10% FBS) was found to be 404 nM.
The compound `Cn1cc(-c2cc(-c3ccc(N4CCN(C(=O)C5(c6cnccn6)CC5)CC4)nc3)c3c(C#N)cnn3c2)cn1` [Example 350, 6-(1-methyl-1H-pyrazol-4-yl)-4-(6-(4-(1-(pyrazin-2-yl)cyclopropane-carbonyl)piperazin-1-yl)pyridin-3-yl)pyrazolo[1,5-a]pyridine-3-carbonitrile] showed an IC50 (10% FBS) of 1860 nM.
The compound `CN(C)C(C(=O)N1CCN(c2ccc(-c3cc(-c4cnn(C)c4)cn4ncc(C#N)c34)cn2)CC1)c1ccc(F)cc1` (stereo not drawn) [Example 351, 4-(6-(4-(2-(dimethylamino)-2-(4-fluorophenyl)acetyl)piperazin-1-yl)pyridin-3-yl)-6-(1-methyl-1H-pyrazol-4-yl)pyrazolo[1,5-a]pyridine-3-carbonitrile] gave an IC50 (10% FBS) of 1760 nM.
The same measure, in the same setting: the same measure for `COCC1(C(=O)N2CCN(c3ccc(-c4cc(-c5cnn(C)c5)cn5ncc(C#N)c45)cn3)CC2)CC1` [Example 353, 4-(6-(4-(1-(methoxymethyl)cyclopropanecarbonyl)piperazin-1-yl)pyridin-3-yl)-6-(1-methyl-1H-pyrazol-4-yl)pyrazolo[1,5-a]pyridine-3-carbonitrile]: 1710 nM; for `COCC1(C(=O)N2CCN(c3ccc(-c4cc(-c5cnn(C)c5)cn5ncc(C#N)c45)cn3)CC2)CCC1` [Example 354, 4-(6-(4-(1-(methoxymethyl)cyclobutanecarbonyl)piperazin-1-yl)pyridin-3-yl)-6-(1-methyl-1H-pyrazol-4-yl)pyrazolo[1,5-a]pyridine-3-carbonitrile]: 1290 nM.
Still for that read-out and setting: the same measure for `Cn1cc(-c2cc(-c3ccc(N4CCN(C(=O)C5(c6cccc(Cl)c6)CC5)CC4)nc3)c3c(C#N)cnn3c2)cn1` [Example 356, 4-(6-(4-(1-(3-chlorophenyl)cyclopropane-1-carbonyl)piperazin-1-yl)pyridin-3-yl)-6-(1-methyl-1H-pyrazol-4-yl)pyrazolo[1,5-a]pyridine-3-carbonitrile 2,2,2-trifluoroacetate]: 126 nM; for `Cn1cc(-c2cc(-c3ccc(N4CCN(C(=O)Cc5ccc(OC(F)(F)F)cc5)CC4)nc3)c3c(C#N)cnn3c2)cn1` [Example 357, 6-(1-methyl-1H-pyrazol-4-yl)-4-(6-(4-(2-(4-(trifluoromethoxy)phenyl)acetyl)piperazin-1-yl)pyridin-3-yl)pyrazolo[1,5-a]pyridine-3-carbonitrile 2,2,2-trifluoroacetate]: 2040 nM; for `Cn1cc(-c2cc(-c3ccc(N4CCN(C(=O)c5ccccc5N5CCOCC5)CC4)nc3)c3c(C#N)cnn3c2)cn1` [Example 358, 6-(1-methyl-1H-pyrazol-4-yl)-4-(6-(4-(2-morpholinobenzoyl)piperazin-1-yl)pyridin-3-yl)pyrazolo[1,5-a]pyridine-3-carbonitrile bis(2,2,2-trifluoroacetate)]: 161 nM.
`Cn1cc(-c2cc(-c3ccc(N4CCN(C(=O)C5(c6ccccn6)CC5)CC4)nc3)c3c(C#N)cnn3c2)cn1` [Example 359, 6-(1-methyl-1H-pyrazol-4-yl)-4-(6-(4-(1-(pyridine-2-yl)cyclopropane-1-carbonyl)piperazin-1-yl)pyridin-3-yl)pyrazolo[1,5-a]pyridine-3-carbonitrile bis(2,2,2-trifluoroacetate)] came in with an IC50 (10% FBS) of 910 nM.
Take `Cn1cc(-c2cc(-c3ccc(N4CCN(C(=O)Cc5ccc(F)cn5)CC4)nc3)c3c(C#N)cnn3c2)cn1` [Example 360, 4-(6-(4-(2-(5-fluoropyridin-2-yl)acetyl)piperazin-1-yl)pyridin-3-yl)-6-(1-methyl-1H-pyrazol-4-yl)pyrazolo[1,5-a]pyridine-3-carbonitrile bis(2,2,2-trifluoroacetate)]: half-maximal inhibition (10% FBS) (IC50) was put at 385 nM.
As for `Cn1cc(-c2cc(-c3ccc(N4CCN(C(=O)CN5CCOCC5)CC4)nc3)c3c(C#N)cnn3c2)cn1` [Example 362, 6-(1-methyl-1H-pyrazol-4-yl)-4-(6-(4-(2-morpholinoacetyl)piperazin-1-yl)pyridin-3-yl)pyrazolo[1,5-a]pyridine-3-carbonitrile bis(2,2,2-trifluoroacetate)], half-maximal inhibition (10% FBS) (IC50) was put at 1860 nM.
In the case of `Cn1cc(-c2cc(-c3ccc(N4CCN(C(=O)C(c5ccccc5)N5CCOCC5)CC4)nc3)c3c(C#N)cnn3c2)cn1` (stereo not drawn) [Example 363, 6-(1-methyl-1H-pyrazol-4-yl)-4-(6-(4-(2-morpholino-2-phenylacetyl)piperazin-1-yl)pyridin-3-yl)pyrazolo[1,5-a]pyridine-3-carbonitrile bis(2,2,2-trifluoroacetate)], 2640 nM corresponded to half-maximal inhibition (10% FBS) (IC50).
In turn, `CCN(CC)C(C(=O)N1CCN(c2ccc(-c3cc(-c4cnn(C)c4)cn4ncc(C#N)c34)cn2)CC1)c1ccccc1` (stereo not drawn) [Example 364, 4-(6-(4-(2-(diethylamino)-2-phenylacetyl)piperazin-1-yl)pyridin-3-yl)-6-(1-methyl-1H-pyrazol-4-yl)pyrazolo[1,5-a]pyridine-3-carbonitrile bis(2,2,2-trifluoroacetate)] returned a concentration for half-maximal inhibition (IC50) (10% FBS) of 4360 nM.
Where the note is “10% FBS”, `Cn1cc(-c2cc(-c3ccc(N4CCN(C(=O)Cc5ccc(C#N)cc5)CC4)nc3)c3c(C#N)cnn3c2)cn1` [Example 365, 4-(6-(4-(2-(4-cyanophenyl)acetyl)piperazin-1-yl)pyridin-3-yl)-6-(1-methyl-1H-pyrazol-4-yl)pyrazolo[1,5-a]pyridine-3-carbonitrile 2,2,2-trifluoroacetate] displayed a half-maximal inhibitory concentration (IC50) of 597 nM.
As for `COCCn1ccc(C(=O)N2CCN(c3ccc(-c4cc(-c5cnn(C)c5)cn5ncc(C#N)c45)cn3)CC2)n1` [Example 366, 4-(6-(4-(1-(2-methoxyethyl)-1H-pyrazole-3-carbonyl)piperazin-1-yl)pyridin-3-yl)-6-(1-methyl-1H-pyrazol-4-yl)pyrazolo[1,5-a]pyridine-3-carbonitrile bis(2,2,2-trifluoroacetate)], where the note is “10% FBS”, half-maximal inhibition (IC50) required 422 nM.
Compound `CCCc1onc(C)c1C(=O)N1CCN(c2ccc(-c3cc(-c4cnn(C)c4)cn4ncc(C#N)c34)cn2)CC1` [Example 367, 4-yl)-4-(6-(4-(3-methyl-5-6-(1-methyl-1H-pyrazol-propylisoxazole-4-carbonyl)piperazin-1-yl)pyridin-3-yl)pyrazolo[1,5-a]pyridine-3-carbonitrile 2,2,2-trifluoroacetate] registered an IC50 (10% FBS) of 355 nM.
In the case of `Cn1cc(-c2cc(-c3ccc(N4CCN(C(=O)C(c5ccccc5)N5CCCCC5)CC4)nc3)c3c(C#N)cnn3c2)cn1` (stereo not drawn) [Example 368, 6-(1-methyl-1H-pyrazol-4-yl)-4-(6-(4-(2-phenyl-2-(piperidin-1-yl)acetyl)piperazin-1-yl)pyridin-3-yl)pyrazolo[1,5-a]pyridine-3-carbonitrile bis(2,2,2-trifluoroacetate)], the concentration for half-maximal inhibition (IC50) (10% FBS) was 1850 nM.
As to `Cn1cc(-c2cc(-c3ccc(N4CCN(C(=O)C5(c6cccnc6)CC5)CC4)nc3)c3c(C#N)cnn3c2)cn1` [Example 369, 6-(1-methyl-1H-pyrazol-4-yl)-4-(6-(4-(1-(pyridine-3-yl)cyclopropane-1-carbonyl)piperazin-1-yl)pyridin-3-yl)pyrazolo[1,5-a]pyridine-3-carbonitrile bis(2,2,2-trifluoroacetate)], half-maximal inhibition (10% FBS) (IC50) was put at 1270 nM.
With `Cn1cc(-c2cc(-c3ccc(N4CCN(C(=O)c5cc(C6CC6)[nH]n5)CC4)nc3)c3c(C#N)cnn3c2)cn1` [Example 370, 4-(6-(4-(5-cyclopropyl-1H-pyrazole-3-carbonyl)piperazin-1-yl)pyridin-3-yl)-6-(1-methyl-1H-pyrazol-4-yl)pyrazolo[1,5-a]pyridine-3-carbonitrile bis(2,2,2-trifluoroacetate)], where the note is “10% FBS”, the IC50 came out at 29.8 nM.
`CO[C@](C(=O)N1CCN(c2ccc(-c3cc(-c4cnn(C)c4)cn4ncc(C#N)c34)cn2)CC1)(c1ccccc1)C(F)(F)F` [Example 371, (S)-6-(1-methyl-1H-pyrazol-4-yl)-4-(6-(4-(3,3,3-trifluoro-2-methoxy-2-phenylpropanoyl)piperazin-1-yl)pyridin-3-yl)pyrazolo[1,5-a]pyridine-3-carbonitrile] came in with an IC50 of 1910 nM.
